Assay [1] concerns T. hyo. The experiment in a line: Example 7: induced swine dysentery trial, drug in feed. The assay is classed as in vivo, pigs. The following applies: for No. Pig Days with General Appearance Score of: 1 / No. Pig Days with Hydration Score of: 1: 1 = Normal; for No. Pig Days with General Appearance Score of: 2: 2 = Depressed; for No. Pig Days with General Appearance Score of: 3: 3 = Moribund; for No. Pig Days with General Appearance Score of: 4: 4 = Dead; for No. Pig Days with Hydration Score of: 2: 2 = mild; for No. Pig Days with Hydration Score of: 3: 3 = moderate; for No. Pig Days with Hydration Score of: 4: 4 = severe. The protocol:
The test is conducted using 40 crossbred pigs approximately 6 weeks of age, weighing 12.8 kg at receipt. Pigs are assigned to one of the treatments outlined in the Table below, stratified by body weight and sex, and randomly assigned to pens within a randomized block design. Sexes intermixed within pens and proportioned among treatment groups. Treatments groups are randomly assigned to pens within experimental blocks to alleviate location variables (see Table 9). Each treatment group consists of two replicate pens with five pigs per pen.
All pigs are adjusted to the test facility for four days prior to their challenge with 100 ml of T. hvodvsenteriae (T. hvo) broth culture. Respective treatment diets are provided 1 hr postchallenge and continued ad libitum for three weeks followed by a two week nonmedicated period. Clinical signs are noted and recorded for each pig each day postchallenge.
Pigs are challenged on day 5 and then provided respective treatment diets immediately postchallenge for a 21-day period followed by a 14-day nonmedication period.
Pigs are challenged on day 5 and then provided respective treatment diets immediately postchallenge for a 21-day period followed by a 14-day nonmedicated period.

The subject of assay [2] is Peptococcus variabilis KB 235 (ATCC 14955). It is filed as cell-based. The settings on record: Medium B. The text has this: (§1) For reference, the minimum growth inhibition concentrations (MIC) to various bacteria of above five drugs and Lankacidin C are shown in Table 3.
The test system of assay [3] is Bcteroides fragilis KB 169 (ATCC 23745). The assay is classed as cell-based. The settings on record: Medium B.
Text: as §1

Assay [4] concerns Xanthomonas oryzae KB 88. The experiment in a line: microbe, parasite or virus in culture. It is filed as cell-based.
Assay [5] has as its system piricularia oryzae KF 180. The assay is described as follows: microbe, parasite or virus in culture. The assay is classed as cell-based.
The test system of assay [6] is Clostridium perfringens KB 129 (ATCC 3624). The experiment in a line: microbe, parasite or virus in culture. It is filed as cell-based.
In assay [7] the test system is Treponema hyodysenteriae. The assay is classed as in vivo, pigs.
The test system of assay [8] is Treponema hyodysenteriae. It is filed as in vivo, pigs. This is another data set of the same source.
Setting [9] is: Treatment C, 50 g/ton Carbadox, Total.
Where [10] appears, read: Treatment C, 50 g/ton Carbadox, per pen (2, 7).
[11] abbreviates: Clostridium perfringens, ATCC3624.
Setting [12] is: […], 0 normal, 1 diarrhea, 2 feces cruentae.
[13] abbreviates: Group III, 5 additional healthy pigs penned with the treated pigs.
The mark [14] stands for this setting: Group III, second line of 5 pigs (additional healthy pigs).
The mark [15] stands for this setting: Treatment A, 20 g/ton hygromycin A, Total.
Where [16] appears, read: Treatment A, 20 g/ton hygromycin A, per pen (1, 4).
Where [17] appears, read: Treatment B, 10 g/ton hygromycin A, Total.
Where [18] appears, read: Treatment B, 10 g/ton hygromycin A, per pen (5, 8).
Where [19] appears, read: Treatment C, 50 g/ton hygromycin A, Total.
The mark [20] stands for this setting: Treatment C, 50 g/ton hygromycin A, per pen (2, 7).

Converted amounts (≈) assume the structure as drawn. “And” between values parts separate entries of the source, which are not always exact repeats. Identical values can stand only once. Like-named read-outs stand apart in the source and are kept apart here. Some results are limits rather than exact numbers.

The text below walks through data of patent EP0243717A1 (priority 1986, dated 1987).

As for `COC(=O)N/N=C/c1c[n+]([O-])c2ccccc2[n+]1[O-]` [Carbadox, carbadox, reference compound], in assay [1] (setting [9]), the “No. Pig Days with General Appearance Score of: 1” value is reported as 349 pig days, the “No. Pig Days with General Appearance Score of: 2” value was 1 pig days, the “No. Pig Days with General Appearance Score of: 3” value worked out at 0 pig days and the “No. Pig Days with General Appearance Score of: 4” value was 0 pig days. Besides, in assay [1] (setting [10]), the “No. Pig Days with General Appearance Score of: 1” value was 174 pig days and 175 pig days; the “No. Pig Days with General Appearance Score of: 3” value came out at 0 pig days; the “No. Pig Days with General Appearance Score of: 4” value is reported as 0 pig days.

As for `C=C[C@]1(C)C[C@@H](OC(=O)CSCCN(CC)CC)[C@]2(C)[C@H](C)CC[C@]3(CCC(=O)[C@H]32)[C@@H](C)[C@@H]1O` [Dynamutilin, tiamulin], the MIC in assay [2] (read-out: MIC) was 0.4 µg/mL (≈ 0.81 µM); in assay [3] (read-out: MIC), less than 0.2 µg/mL; in assay [4] (Xanthomonas oryzae, KB88), less than 3.12 µg/mL; in assay [5] it was more than 100 µg/mL; in assay [6] (setting [11]) it was 0.78 µg/mL (≈ 1.58 µM).

The compound `CC(=O)[C@H]1O[C@@H](Oc2ccc(/C=C(\C)C(=O)N[C@@H]3[C@H](O)[C@@H](O)[C@H]4OCO[C@H]4[C@@H]3O)cc2O)[C@@H](O)[C@@H]1O` [Hygromycin A, hygromycin A] had an MIC in assay [3] of 50 µg/mL (≈ 97.8 µM). In assay [7] (Group III, hygromycin A 0.5mg/liter drinking water, rectal swabs), the “Pathogen Detection Rate (%) During medication days 31 to 120” value is reported as 0/12. In addition, in assay [7] (Group III: infected, hygromycin A 0.5mg/liter drinking water), the Mortality amounted to 0. Moreover, the “Pathogen Detection Rate (%) Withdrawal days 31 to 120” value in assay [7] (Group III, after end of medication, rectal swabs) is 0/12. Also, in assay [7] (Group III, rectal swabs), the “Pathogen Detection Rate (%) Post infecting days 1 to 3 Before medication” value is recorded as 10/12 and the “Pathogen Detection Rate (%) Prein-fecting” value stood at 0%. Besides, in assay [7] (setting [12]), the “Average diarrhea index During medication” value is 0.22 and the “Average diarrhea index Pre-medication” value came out at 0. For the same compound, the “Gross pathological examination of the colon” value in assay [7] ([…], necropsy after the experiment) was “normal”. Also, in assay [7] (pig, in vivo), the “Change in morbidity (%) Third day” value came out at 0% and the “Change in morbidity (%) Thirtieth day” value was 0%. Moreover, in assay [4] (Medium E), the MIC came out at 50 µg/mL (≈ 97.8 µM). The same compound yielded an MIC in assay [5] of more than 100 µg/mL. In assay [8] (setting [13]), the “Average diarrhea index During observation” value is reported as 0, the “Change in morbidity ( %) Commencement of observation” value is listed as 0%, the “Change in morbidity ( %) During observation” value is listed as 0% and the “Mortality (%)” value came to 0%. Also, the “Mortality (%)” value in assay [8] (Group III, 5 infected treated pigs) is given as 0%. In assay [8] (setting [14]), the “Pathogen Detection Rate (%) Commencement of observation” value was determined as 0% and the “Pathogen Detection Rate (%) During observation” value is on record as 0%. Also, the “attack of the disease in infected pigs or healthy pigs” value in assay [8] (Group III, during the observation period) is “no attack of the disease is observed”. Also, the “swine dysentery symptoms of infected pigs” value in assay [8] (Group III, during the therapeutic period and at the starting time of observation) was “no swine dysentery symptoms”. The “Average diarrhea index pre-medication” value in assay [8] (setting [12]) was 0. In addition, in assay [8] (pig, in vivo), the “Average diarrhea index During medication” value was 0, the “Average diarrhea index During observation” value came to 0, the “Change in morbidity ( %) Commencement of observation” value is reported as 0% and the “Change in morbidity ( %) During medication” value is reported as 0/5. Also, in assay [8] (pig, in vivo), the “Change in morbidity ( %) During observation” value worked out at 0%, the “Pathogen Detection Rate (%) Commencement of observation” value came to 0%, the “Pathogen Detection Rate (%) During medication” value is on record as 0% and the “Pathogen Detection Rate (%) During observation” value is given as 0%. The “Pathogen Detection Rate (%) pre-infection” value in assay [8] (pig, in vivo) stood at 0%. The MIC in assay [6] (Medium B) was found to be 6.25 µg/mL (≈ 12.2 µM). Further, in assay [1] (setting [15]), the “No. Pig Days with General Appearance Score of: 1” value is reported as 349 pig days, the “No. Pig Days with General Appearance Score of: 2” value is given as 1 pig days, the “No. Pig Days with Hydration Score of: 2” value was determined as 0 pig days and the “No. Pig Days with General Appearance Score of: 3” value was determined as 0 pig days. For the same compound, in assay [1] (setting [15]), the “No. Pig Days with Hydration Score of: 3” value is reported as 0 pig days, the “No. Pig Days with General Appearance Score of: 4” value is given as 0 pig days and the “No. Pig Days with Hydration Score of: 4” value is 0 pig days. In addition, in assay [1] (setting [16]), the “No. Pig Days with General Appearance Score of: 1” value is 174 pig days and 175 pig days; the “No. Pig Days with Hydration Score of: 2” value was found to be 0 pig days; the “No. Pig Days with General Appearance Score of: 3” value is reported as 0 pig days; the “No. Pig Days with Hydration Score of: 3” value was determined as 0 pig days. In addition, in assay [1] (setting [16]), the “No. Pig Days with General Appearance Score of: 4” value is given as 0 pig days and the “No. Pig Days with Hydration Score of: 4” value is given as 0 pig days. Moreover, in assay [1] (Treatment A, 20 g/ton, Total), the “No. Pig Days with Hydration Score of: 1” value is 350 pig days. Moreover, the “No. Pig Days with Hydration Score of: 1” value in assay [1] (Treatment A, 20 g/ton, per pen (1, 4)) is recorded as 175 pig days. In assay [1] (setting [17]), the “No. Pig Days with General Appearance Score of: 1” value was found to be 349 pig days, the “No. Pig Days with General Appearance Score of: 2” value stood at 1 pig days, the “No. Pig Days with Hydration Score of: 2” value is 4 pig days and the “No. Pig Days with General Appearance Score of: 3” value is given as 0 pig days. In assay [1] (setting [17]), the “No. Pig Days with Hydration Score of: 3” value is given as 0 pig days, the “No. Pig Days with General Appearance Score of: 4” value is 0 pig days and the “No. Pig Days with Hydration Score of: 4” value is listed as 0 pig days. In assay [1] (setting [18]), the “No. Pig Days with General Appearance Score of: 1” value was 175 pig days and 174 pig days; the “No. Pig Days with Hydration Score of: 2” value turned out to be 2 pig days; the “No. Pig Days with General Appearance Score of: 3” value worked out at 0 pig days; the “No. Pig Days with Hydration Score of: 3” value is reported as 0 pig days. In assay [1] (setting [18]), the “No. Pig Days with General Appearance Score of: 4” value stood at 0 pig days and the “No. Pig Days with Hydration Score of: 4” value was 0 pig days. Moreover, in assay [1] (Treatment B, 10 g/ton, Total), the “No. Pig Days with Hydration Score of: 1” value was 346 pig days. Besides, the “No. Pig Days with Hydration Score of: 1” value in assay [1] (Treatment B, 10 g/ton, per pen (5, 8)) stood at 173 pig days. Further, in assay [1] (setting [19]), the “No. Pig Days with Hydration Score of: 2” value is 3 pig days, the “No. Pig Days with Hydration Score of: 3” value was 0 pig days and the “No. Pig Days with Hydration Score of: 4” value amounted to 0 pig days. Further, in assay [1] (setting [20]), the “No. Pig Days with Hydration Score of: 2” value is 2 pig days and 1 pig days; the “No. Pig Days with Hydration Score of: 3” value worked out at 0 pig days; the “No. Pig Days with Hydration Score of: 4” value stood at 0 pig days. Moreover, the “No. Pig Days with Hydration Score of: 1” value in assay [1] (Treatment C, printed 50 g/ton, Total) was 347 pig days. For the same compound, in assay [1] (Treatment C, printed 50 g/ton, per pen (2, 7), row), the “No. Pig Days with Hydration Score of: 1” value is 173 pig days and 174 pig days.

With `CC(=O)C(=O)N[C@@H]1/C=C(C)/C=C/[C@@H](O)C/C=C(C)/C=C/[C@@H](O)C[C@H]2OC(=O)[C@]1(C)C(=O)[C@@H]2C` [Lankacidin C], the MIC is 0.4 µg/mL (≈ 0.87 µM) in assay [2]; 0.78 µg/mL (≈ 1.7 µM) in assay [3]; less than 3.12 µg/mL in assay [4] (Medium E); more than 100 µg/mL in assay [5]; 3.12 µg/mL (≈ 6.79 µM) in assay [6] (Medium B).

On to `CCC[C@@H]1C[C@@H](C(=O)N[C@@H]([C@H]2O[C@H](SC)[C@H](O)[C@@H](O)[C@H]2O)[C@@H](C)O)N(C)C1` [Lincomycin], for which the MIC in assay [2] (read-out: MIC) was 0.78 µg/mL (≈ 1.92 µM); in assay [3] (read-out: MIC), 0.4 µg/mL (≈ 0.984 µM); in assay [4] (Xanthomonas oryzae, KB88), more than 100 µg/mL; in assay [5] it was more than 100 µg/mL; in assay [6] (setting [11]) it was 0.4 µg/mL (≈ 0.984 µM).
